# In US20080213364A1, “Formulations of Pyridoxal-5'-Phosphate and Methods of Preparation” (Medicure International, Inc., priority 2004, published 2008):
# What was measured:
# [1] = assay type: in vivo; conditions: 30 mg/kg daily as enteric coated tablets, Day 1 vs Day 7 parameters
# Description: (§1) Pharmacokinetics Study—The protocol was designed to first study a single dose of pyridoxal 5′-phosphate at three different dose levels: […] of body weight. Following evaluation of safety and tolerance, the highest tolerated dose was administered once daily for seven consecutive days. The product was manufactured as enteric-coated tablets each containing 250 mg of pyridoxal 5′-phosphate. The dose was calculated based on the body weight and rounded to the nearest 250 mg.
# During the single-dose phase, blood samples were collected prior to dosing and 1, 2, 3, 4, 5, 6, 7, 8, 12, 16 and 24 hours following drug administration. […]
# (§2) Pharmacokinetic Analysis—The following pharmacokinetic parameters were calculated: area under the curve from time zero to the last measurable concentration (AUC-T), area under the curve from time zero to infinity (AUC-inf), maximal plasma concentration (Cmax), time of maximal plasma concentration (Tmax), elimination constant (Kel), half-life (T½), mean residence time (MRT), clearance (Cl) and volume of distribution (Vd).
# Subjects randomized to the 15 mg/kg group actually received a dose of 14.58±1.11 mg/kg. […] During the multi-dose phase of the study, the number of tablets was calculated prior to the first drug administration and remained constant throughout the duration of the study, regardless of any change in body weight. […]
# [2] = Single-dose pharmacokinetics study, plasma pyridoxal 5′-phosphate; conditions: both, human, in vivo
# Description: as §1
# During the single-dose phase, blood samples were collected prior to dosing and 1, 2, 3, 4, 5, 6, 7, 8, 12, 16 and 24 hours following drug administration. During the multi-dose phase, blood samples were drawn each morning prior to dosing and 2 hours post-dose. Following the last dose on day 7, blood samples were drawn after 1, 2, 3, 4, 5, 6, 7, 8, 12, 16 and 24 hours.
# Plasma samples were separated and divided into two approximately equal aliquots and stored at −70±10° C. pending shipment (over dry ice) to the analytical laboratory.
# as §2
# Whenever possible, the area under the plasma concentration-time curve was calculated from time zero to the last measurable concentration (AUC T) using the linear trapezoidal method. AUC-T is expressed as ng·h/ml. AUC-T was also normalized for body weight and expressed as ng·h/ml/kg.
# The area under the curve from time zero to infinity (AUC-inf) was calculated as the sum of AUC-T+Clast/Kel where Clast represents the last measurable concentration and Kel the elimination rate constant calculated by linear least squares regression using the data points that best represent the terminal linear phase. AUC-inf is expressed as ng·h/ml. AUC-inf was also normalized for body weight and expressed as ng·h/mg/kg.
# Cmax is expressed in ng/ml. Cmax was also normalized for body weight and expressed as ng/ml/kg. […]
# The oral clearance was evaluated by dividing the dose (mg/kg) by AUC-inf (ng·h/mL). Clearance is expressed as L/h/kg. The actual clearance was also calculated without normalization for body weight and expressed as L/h.
# The volume of distribution is actually the Vdarea calculated by dividing the clearance (L/h/kg) by Kel (h-1). Vd is expressed as L/kg and is not corrected for absolute bioavailability. The actual volume of distribution was also calculated without normalization for body weight and expressed in liters. […]
compound,measurement,setting,value
Cc1ncc(COP(=O)(O)O)c(C=O)c1O [pyridoxal 5′-phosphate],accumulation upon multiple dosing,[1],does not accumulate upon multiple dosing
same,"mean maximal plasma concentration (mean curve, FIG. 3)",[2]; 15 mg/kg,1870 ± 2652 ng/mL
same,time at which mean maximal plasma concentration was reached,[2]; 15 mg/kg,6 h
same,"mean maximal plasma concentration (mean curve, FIG. 3)",[2]; 60 mg/kg,3922 ± 5457 ng/mL
same,time at which mean maximal plasma concentration was reached,[2]; 60 mg/kg,4 h
